In article PMC6704710, “Preclinical evaluation of 3D185, a novel potent inhibitor of FGFR1/2/3 and CSF-1R, in FGFR-dependent and macrophage-dominant cancer models” (Journal of Experimental & Clinical Cancer Research : CR, 2019):

Legend:
Test in all cases: Eurofins kinase panel
Type in all cases: biochemical
Settings in all cases: read-out: Inhibition rate (%)
[1] = target: T1, Ret(h) (Homo sapiens, UniProt P07949)
T1 construct: purchased Eurofins (KinaseProfiler)

[2] = target: T2, MST1(h) (Homo sapiens, UniProt Q13043)
T2 construct: purchased Eurofins (KinaseProfiler)
T2 sequence (Q13043 1-487): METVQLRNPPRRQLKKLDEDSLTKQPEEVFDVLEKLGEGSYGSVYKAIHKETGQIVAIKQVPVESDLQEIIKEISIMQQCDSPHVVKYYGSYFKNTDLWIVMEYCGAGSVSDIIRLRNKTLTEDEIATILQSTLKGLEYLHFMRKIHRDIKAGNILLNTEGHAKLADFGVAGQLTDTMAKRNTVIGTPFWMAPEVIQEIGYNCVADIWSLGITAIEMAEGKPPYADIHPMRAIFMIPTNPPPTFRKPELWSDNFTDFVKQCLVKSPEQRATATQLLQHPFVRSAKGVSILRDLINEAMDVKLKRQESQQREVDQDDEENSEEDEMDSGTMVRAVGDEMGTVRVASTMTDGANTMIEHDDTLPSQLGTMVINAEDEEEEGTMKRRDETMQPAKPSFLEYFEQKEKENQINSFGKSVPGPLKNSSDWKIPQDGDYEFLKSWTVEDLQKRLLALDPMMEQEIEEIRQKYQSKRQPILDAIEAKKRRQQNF

[3] = target: T3, Rsk1(r) (Rattus norvegicus, UniProt Q63531)
T3 construct: purchased Eurofins (KinaseProfiler)

[4] = target: T4, Blk(h) (Homo sapiens, UniProt P51451)
T4 construct: purchased Eurofins (KinaseProfiler)

[5] = target: T5, IKKβ(h) (Homo sapiens, UniProt O14920)
T5 construct: purchased Eurofins (KinaseProfiler)
T5 sequence (O14920 1-756): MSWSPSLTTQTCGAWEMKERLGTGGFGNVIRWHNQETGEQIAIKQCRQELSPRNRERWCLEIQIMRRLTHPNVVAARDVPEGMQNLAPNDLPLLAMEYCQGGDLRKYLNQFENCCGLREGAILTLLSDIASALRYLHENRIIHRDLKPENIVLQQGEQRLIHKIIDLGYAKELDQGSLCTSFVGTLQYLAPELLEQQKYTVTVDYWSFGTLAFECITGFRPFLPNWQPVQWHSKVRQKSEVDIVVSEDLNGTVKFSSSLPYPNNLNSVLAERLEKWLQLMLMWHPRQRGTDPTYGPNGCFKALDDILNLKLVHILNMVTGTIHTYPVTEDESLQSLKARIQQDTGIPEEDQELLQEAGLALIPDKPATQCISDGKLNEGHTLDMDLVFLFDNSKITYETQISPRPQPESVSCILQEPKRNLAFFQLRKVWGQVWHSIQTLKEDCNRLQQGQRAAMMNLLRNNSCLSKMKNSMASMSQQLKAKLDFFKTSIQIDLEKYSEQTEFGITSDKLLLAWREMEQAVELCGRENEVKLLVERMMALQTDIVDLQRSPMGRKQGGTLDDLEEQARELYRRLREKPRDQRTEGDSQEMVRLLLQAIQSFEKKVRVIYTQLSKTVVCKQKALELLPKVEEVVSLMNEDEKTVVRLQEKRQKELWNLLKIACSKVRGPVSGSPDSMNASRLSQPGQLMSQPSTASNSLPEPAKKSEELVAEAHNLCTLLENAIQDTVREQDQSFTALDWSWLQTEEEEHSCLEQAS

[6] = target: T6, CaMKIIα(h) (Homo sapiens, UniProt Q9UQM7)
T6 construct: purchased Eurofins (KinaseProfiler)

[7] = target: T7, TTBK1(h) (Homo sapiens, UniProt Q5TCY1)
T7 construct: purchased Eurofins (KinaseProfiler)

[8] = target: T8, MSK2(h) (Homo sapiens, UniProt O75676)
T8 construct: purchased Eurofins (KinaseProfiler)

[9] = target: T9, CK1δ(h) (Homo sapiens, UniProt P48730)
T9 construct: purchased Eurofins (KinaseProfiler)

[10] = target: T10, CDK4/cyclinD3(h) (Homo sapiens, UniProt P11802)
T10 construct: purchased Eurofins (KinaseProfiler)

[11] = target: T11, MEK1(h) (Homo sapiens, UniProt Q02750)
T11 construct: purchased Eurofins (KinaseProfiler)

T4 sequence (P51451 whole entry): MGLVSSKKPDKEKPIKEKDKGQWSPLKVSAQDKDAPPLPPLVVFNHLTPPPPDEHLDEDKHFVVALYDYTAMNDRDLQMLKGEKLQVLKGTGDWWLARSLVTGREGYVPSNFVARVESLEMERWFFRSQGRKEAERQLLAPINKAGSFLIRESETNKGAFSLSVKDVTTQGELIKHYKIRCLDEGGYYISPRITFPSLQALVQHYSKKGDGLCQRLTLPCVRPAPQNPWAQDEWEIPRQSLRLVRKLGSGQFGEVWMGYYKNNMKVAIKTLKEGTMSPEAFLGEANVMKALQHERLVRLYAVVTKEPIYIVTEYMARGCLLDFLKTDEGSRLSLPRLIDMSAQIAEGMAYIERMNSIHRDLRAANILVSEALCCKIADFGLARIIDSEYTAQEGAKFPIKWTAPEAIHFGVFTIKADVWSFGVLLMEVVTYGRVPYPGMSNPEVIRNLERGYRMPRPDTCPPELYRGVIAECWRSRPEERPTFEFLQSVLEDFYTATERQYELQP
T6 sequence (Q9UQM7 whole entry): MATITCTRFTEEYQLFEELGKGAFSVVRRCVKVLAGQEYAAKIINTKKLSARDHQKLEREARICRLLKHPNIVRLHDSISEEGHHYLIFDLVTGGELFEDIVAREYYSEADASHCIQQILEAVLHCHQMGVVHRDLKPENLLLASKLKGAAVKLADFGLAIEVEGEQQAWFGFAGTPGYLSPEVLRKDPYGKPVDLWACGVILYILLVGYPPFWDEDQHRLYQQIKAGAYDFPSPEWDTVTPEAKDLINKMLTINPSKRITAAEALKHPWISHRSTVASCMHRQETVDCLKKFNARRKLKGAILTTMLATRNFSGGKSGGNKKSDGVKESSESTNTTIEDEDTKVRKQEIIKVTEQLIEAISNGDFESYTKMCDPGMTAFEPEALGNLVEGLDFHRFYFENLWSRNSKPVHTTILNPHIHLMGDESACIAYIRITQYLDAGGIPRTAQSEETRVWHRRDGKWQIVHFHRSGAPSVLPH
T1 sequence (P07949 29-1114): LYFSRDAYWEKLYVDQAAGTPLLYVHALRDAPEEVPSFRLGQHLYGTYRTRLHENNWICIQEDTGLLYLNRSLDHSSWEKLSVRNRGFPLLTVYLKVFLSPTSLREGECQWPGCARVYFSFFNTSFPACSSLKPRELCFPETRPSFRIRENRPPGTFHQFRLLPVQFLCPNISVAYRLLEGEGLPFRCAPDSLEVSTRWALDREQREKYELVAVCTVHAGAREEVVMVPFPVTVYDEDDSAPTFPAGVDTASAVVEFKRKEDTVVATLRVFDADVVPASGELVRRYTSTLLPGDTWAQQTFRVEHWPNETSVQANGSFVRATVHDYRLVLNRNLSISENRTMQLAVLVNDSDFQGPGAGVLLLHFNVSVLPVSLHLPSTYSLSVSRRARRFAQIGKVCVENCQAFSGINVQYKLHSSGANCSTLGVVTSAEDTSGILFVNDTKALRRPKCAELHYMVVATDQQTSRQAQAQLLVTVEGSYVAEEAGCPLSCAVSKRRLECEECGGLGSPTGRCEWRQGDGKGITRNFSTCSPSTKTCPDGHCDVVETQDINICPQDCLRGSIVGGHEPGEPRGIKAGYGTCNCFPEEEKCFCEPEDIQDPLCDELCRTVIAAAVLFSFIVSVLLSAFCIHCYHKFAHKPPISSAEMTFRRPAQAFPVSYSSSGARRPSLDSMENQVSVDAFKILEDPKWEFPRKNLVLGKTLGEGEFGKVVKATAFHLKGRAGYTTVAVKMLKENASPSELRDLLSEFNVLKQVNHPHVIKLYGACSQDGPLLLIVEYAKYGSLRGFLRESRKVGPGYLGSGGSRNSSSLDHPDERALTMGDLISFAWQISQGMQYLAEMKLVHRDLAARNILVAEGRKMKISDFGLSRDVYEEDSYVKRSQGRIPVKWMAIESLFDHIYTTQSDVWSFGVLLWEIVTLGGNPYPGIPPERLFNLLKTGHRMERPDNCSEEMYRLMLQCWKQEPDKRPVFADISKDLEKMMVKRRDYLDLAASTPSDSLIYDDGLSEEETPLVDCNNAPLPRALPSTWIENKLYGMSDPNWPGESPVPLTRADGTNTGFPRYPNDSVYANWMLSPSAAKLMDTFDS
T8 sequence (O75676 whole entry): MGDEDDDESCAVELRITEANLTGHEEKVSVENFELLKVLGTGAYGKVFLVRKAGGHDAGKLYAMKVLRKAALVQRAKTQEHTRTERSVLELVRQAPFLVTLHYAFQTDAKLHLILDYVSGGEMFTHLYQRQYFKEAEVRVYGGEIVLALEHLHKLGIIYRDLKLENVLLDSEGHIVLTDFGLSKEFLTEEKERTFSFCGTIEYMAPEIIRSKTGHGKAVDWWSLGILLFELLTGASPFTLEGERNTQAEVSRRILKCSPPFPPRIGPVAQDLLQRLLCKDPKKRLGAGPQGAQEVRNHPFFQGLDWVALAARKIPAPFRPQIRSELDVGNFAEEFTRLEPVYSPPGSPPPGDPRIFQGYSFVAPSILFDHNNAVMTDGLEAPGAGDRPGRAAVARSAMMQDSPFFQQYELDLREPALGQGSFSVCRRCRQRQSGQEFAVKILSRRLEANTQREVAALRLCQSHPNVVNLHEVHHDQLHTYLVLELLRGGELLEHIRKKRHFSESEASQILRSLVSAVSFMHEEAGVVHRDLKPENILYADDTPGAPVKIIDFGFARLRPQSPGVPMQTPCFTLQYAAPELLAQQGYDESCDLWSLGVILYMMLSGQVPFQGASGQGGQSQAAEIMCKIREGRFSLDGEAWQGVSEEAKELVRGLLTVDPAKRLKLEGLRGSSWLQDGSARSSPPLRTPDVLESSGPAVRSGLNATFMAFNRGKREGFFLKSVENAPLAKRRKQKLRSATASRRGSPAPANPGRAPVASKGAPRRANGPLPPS
T7 sequence (Q5TCY1 whole entry): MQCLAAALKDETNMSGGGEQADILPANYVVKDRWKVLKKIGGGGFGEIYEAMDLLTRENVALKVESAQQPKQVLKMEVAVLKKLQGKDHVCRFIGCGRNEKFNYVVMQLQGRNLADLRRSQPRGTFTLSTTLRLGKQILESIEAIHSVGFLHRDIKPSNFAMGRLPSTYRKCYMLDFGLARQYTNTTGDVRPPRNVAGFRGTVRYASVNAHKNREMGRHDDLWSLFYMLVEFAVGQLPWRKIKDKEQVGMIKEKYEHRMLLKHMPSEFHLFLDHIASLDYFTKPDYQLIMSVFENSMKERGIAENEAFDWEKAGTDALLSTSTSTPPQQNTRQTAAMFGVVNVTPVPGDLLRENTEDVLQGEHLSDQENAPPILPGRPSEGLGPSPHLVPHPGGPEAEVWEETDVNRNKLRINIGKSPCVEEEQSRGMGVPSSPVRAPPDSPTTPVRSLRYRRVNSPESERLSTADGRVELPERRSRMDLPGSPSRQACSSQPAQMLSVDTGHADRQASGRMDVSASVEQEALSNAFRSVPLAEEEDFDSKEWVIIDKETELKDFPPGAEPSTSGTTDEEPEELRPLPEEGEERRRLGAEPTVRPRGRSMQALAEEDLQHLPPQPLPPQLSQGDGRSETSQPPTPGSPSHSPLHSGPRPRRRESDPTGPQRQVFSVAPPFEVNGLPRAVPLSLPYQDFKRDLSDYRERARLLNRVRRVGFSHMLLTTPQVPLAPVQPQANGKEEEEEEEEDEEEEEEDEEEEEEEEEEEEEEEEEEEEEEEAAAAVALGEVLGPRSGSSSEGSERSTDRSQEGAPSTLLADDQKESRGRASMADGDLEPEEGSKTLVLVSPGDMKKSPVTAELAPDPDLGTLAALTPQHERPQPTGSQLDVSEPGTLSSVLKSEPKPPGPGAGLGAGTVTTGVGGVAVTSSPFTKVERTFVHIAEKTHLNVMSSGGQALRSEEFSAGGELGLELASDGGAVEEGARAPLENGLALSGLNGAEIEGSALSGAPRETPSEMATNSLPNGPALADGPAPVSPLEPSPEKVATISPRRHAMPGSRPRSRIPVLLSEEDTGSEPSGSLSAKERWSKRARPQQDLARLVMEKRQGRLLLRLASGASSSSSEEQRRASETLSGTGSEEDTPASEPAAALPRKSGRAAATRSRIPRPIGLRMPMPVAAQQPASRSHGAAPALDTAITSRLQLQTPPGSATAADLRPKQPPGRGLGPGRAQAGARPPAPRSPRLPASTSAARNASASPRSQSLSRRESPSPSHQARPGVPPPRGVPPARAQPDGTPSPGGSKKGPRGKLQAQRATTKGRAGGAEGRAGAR
T3 sequence (Q63531 whole entry): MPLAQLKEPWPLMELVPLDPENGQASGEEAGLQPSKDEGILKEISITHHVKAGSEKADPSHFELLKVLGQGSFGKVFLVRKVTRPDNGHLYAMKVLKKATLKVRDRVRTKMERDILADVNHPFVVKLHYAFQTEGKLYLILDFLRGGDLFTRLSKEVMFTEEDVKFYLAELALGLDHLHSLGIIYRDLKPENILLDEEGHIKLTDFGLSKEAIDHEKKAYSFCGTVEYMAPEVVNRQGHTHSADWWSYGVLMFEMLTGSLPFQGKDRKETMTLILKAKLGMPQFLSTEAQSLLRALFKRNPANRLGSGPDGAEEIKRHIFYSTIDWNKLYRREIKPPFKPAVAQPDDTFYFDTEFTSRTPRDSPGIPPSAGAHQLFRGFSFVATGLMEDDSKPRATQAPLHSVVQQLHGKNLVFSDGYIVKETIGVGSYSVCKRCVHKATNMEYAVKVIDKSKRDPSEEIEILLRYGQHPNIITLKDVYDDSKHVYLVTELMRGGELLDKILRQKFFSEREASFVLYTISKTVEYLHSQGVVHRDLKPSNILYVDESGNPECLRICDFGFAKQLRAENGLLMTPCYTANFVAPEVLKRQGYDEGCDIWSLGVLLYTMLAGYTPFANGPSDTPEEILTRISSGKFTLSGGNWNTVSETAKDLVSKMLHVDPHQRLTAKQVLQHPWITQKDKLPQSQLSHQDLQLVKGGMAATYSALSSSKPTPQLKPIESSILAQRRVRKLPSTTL

Question: Which results are given for `COc1cc(OC)c(Cl)c(-c2ccc3c(NC(=O)c4ccc(N5CCNC(C)(C)C5)cc4)n[nH]c3n2)c1Cl` [3D185]?
Answer: inhibition at 0.01 µM ([1]; 10 nM): 8%; inhibition at 0.1 µM ([1]; 100 nM): 27%; inhibition at 1 µM ([1]; 1000 nM): 80%; inhibition at 0.01 µM ([2]; 10 nM): 2%; inhibition at 0.1 µM ([2]; 100 nM): 11%; inhibition at 1 µM ([2]; 1000 nM): 32%; inhibition at 0.01 µM ([3]; 10 nM): -17%; inhibition at 0.1 µM ([3]; 100 nM): 8%; inhibition at 1 µM ([3]; 1000 nM): 30%; inhibition at 0.01 µM ([4]; 10 nM): -18%; inhibition at 0.1 µM ([4]; 100 nM): 16%; inhibition at 1 µM ([4]; 1000 nM): 88%; inhibition at 0.01 µM ([5]; 10 nM): 0%; inhibition at 0.1 µM ([5]; 100 nM): -5%; inhibition at 1 µM ([5]; 1000 nM): 15%; inhibition at 0.01 µM ([6]; 10 nM): -9%; inhibition at 0.1 µM ([6]; 100 nM): 2%; inhibition at 1 µM ([6]; 1000 nM): -15%; inhibition at 0.01 µM ([7]; 10 nM): 2%; inhibition at 0.1 µM ([7]; 100 nM): -7%; inhibition at 1 µM ([7]; 1000 nM): -6%; inhibition at 0.01 µM ([8]; 10 nM): 10%; inhibition at 0.1 µM ([8]; 100 nM): 25%; inhibition at 1 µM ([8]; 1000 nM): 49%; inhibition at 0.01 µM ([9]; 10 nM): -10%; inhibition at 0.1 µM ([9]; 100 nM): 0%; inhibition at 1 µM ([9]; 1000 nM): 6%; inhibition at 0.01 µM ([10]; 10 nM): 5%; inhibition at 0.1 µM ([10]; 100 nM): -4%; inhibition at 1 µM ([10]; 1000 nM): 11%; inhibition at 0.01 µM ([11]; 10 nM): 10%; inhibition at 0.1 µM ([11]; 100 nM): 14%; inhibition at 1 µM ([11]; 1000 nM): 8%
